Consider eight molecules from ChEMBL document CHEMBL5356961 (J Med Chem, 2023).

In data set [1] the target is Nicotinamide phosphoribosyltransferase (Homo sapiens, UniProt P43490). In words: Inhibition of recombinant human NAMPT preincubated for 5 mins followed by NAM addition measured for 15 mins by fluorescence based assay.
Data set [2] has as its system CT26. As to the kind of experiment: Induction of apoptosis in mouse CT26 cells incubated for 48 hrs by Annexin V-FITC/PI staining based flow cytometry. The format is functional, cell-based. The following applies: dose 10-40 nM. A general note: In flow cytometry, cells or beads pass a laser one at a time.
Data set [3] deals with LN-18. In words: Antitumor activity against human LN-18 cells assessed as inhibition of cell viability incubated for 72 hrs by SRB assay. The format is functional, cell-based. Conditions: LN-18, 72 h.
A further data set has as its system PANC-1. In words: Antitumor activity against human PANC-1 cells assessed as inhibition of cell viability at 20 to 80 uM incubated for 48 hrs by CCK8 assay. Format: functional, cell-based. Conditions: dose 20-80 µM.
Data set [4] deals with CT26. As to the kind of experiment: Antitumor activity against mouse CT26 cells allografted in Balb/c mouse model at 2 mg/kg/day, ip for approximately 10 days. Format: functional, organism-based. Conditions: time 10.0 day.
For data set [5], the system named is CT26. As to the kind of experiment: Induction of DNA damage in mouse CT26 cells assessed as increase in gammaH2AX level at 0.1 to 10 uM measured after 12 hrs by immunoblot analysis. The format is functional, cell-based. Conditions: dose 0.1-10 µM. In general terms: A western blot detects proteins with antibodies after separation by electrophoresis.
Data set [6] deals with B16. As to the kind of experiment: Induction of DNA damage in mouse B16 cells assessed as increase in gammaH2AX level at 0.1 uM incubated for 24 hrs by immunoblot analysis. Format: functional, cell-based.
Data set [7] has as its system CT26. In words: Antitumor activity against mouse CT26 cells assessed as inhibition of cell viability incubated for 72 hrs by SRB assay. The format is functional, cell-based. The following applies: CT26, 72 h. (The SRB assay estimates cell density from bound dye.)
For data set [8], the system named is B16. In words: Induction of DNA damage in mouse B16 cells assessed as increase in gammaH2AX level at 1 uM incubated for 24 hrs by immunoblot analysis. The format is functional, cell-based.
Data set [9] has as its system CT26. In words: Induction of DNA damage in mouse CT26 cells assessed as increase in gammaH2AX level at 0.1 to 50 uM incubated for 6 hrs by immunoblot analysis. The format is functional, cell-based. The following applies: dose 0.1-50 µM.
Data set [10] concerns the target Nicotinamide phosphoribosyltransferase (Mus musculus) (UniProt Q99KQ4). As to the kind of experiment: Binding affinity to NAMPT in mouse B16 cells assessed as increase in thermal stabilization incubated for 3 hrs followed by heating at 46 to 71 degreeC for 3 mins by CETSA assay. The format is cell-based. The following applies: time 183.0 min.
A further data set concerns NCI-H1299. In words: Antitumor activity against human NCI-H1299 cells assessed as inhibition of cell viability at 20 to 80 uM incubated for 48 hrs by CCK8 assay. Format: functional, cell-based. Conditions: dose 20-80 µM.
The next data set deals with MDA-MB-231. In words: Antitumor activity against human MDA-MB-231 cells assessed as inhibition of cell viability at 20 to 80 uM incubated for 48 hrs by CCK8 assay. The format is functional, cell-based. The following applies: dose 20-80 µM.
For data set [11], the system named is HepG2. In words: Antitumor activity against human HepG2 cells assessed as decrease in intracellular NAD level measured for 24 hrs by absorbance based assay. The format is functional, cell-based. Conditions: dose 0.032-100 µM.
The test system of data set [12] is B16. In words: Antitumor activity against mouse B16 cells assessed as inhibition of cell viability incubated for 72 hrs by SRB assay. Format: functional, cell-based. Conditions: B16, 72 h.
Data set [13] relates to B16. In words: Induction of DNA damage in mouse B16 cells assessed as increase in gammaH2AX level at 100 nM by immunofluorescence staining based analysis. Conditions: time 2-24 hrs. The format is functional, cell-based.
Another data set has as its system Calf thymus DNA. As to the kind of experiment: Binding affinity to calf thymus DNA assessed as decrease in fluorescence intensity at 100 to 200 uM by […] displacement assay. The format is nucleic-acid assay. The following applies: Bos taurus; dose 100-200 µM.
Data set [14] relates to B16. As to the kind of experiment: Induction of DNA damage in mouse B16 cells assessed as increase in gammaH2AX level at 20 nM incubated for 24 hrs in presence of olaparib by immunofluorescence staining based analysis. Format: functional, cell-based.
Data set [15] in a line: Toxicity in C57BL/6 mouse model allografted with mouse B16 cells assessed as body weight loss at 2 mg/kg/day, ip for approximately 10 days. Format: organism-based. Conditions: in vivo, 240 h, time 10 day.
In data set [16] the test system is CT26. As to the kind of experiment: Antitumor activity against mouse CT26 cells assessed as decrease in intracellular NAD level upto 10 uM measured for 6 hrs by absorbance based assay. Format: functional, cell-based.
The nature of data set [17]: Toxicity in Balb/c mouse model allografted with mouse CT26 cells assessed as body weight loss at 2 mg/kg/day, ip for approximately 10 days. The format is organism-based. The following applies: in vivo, 240 h, time 10 day.
Data set [18] can be described thus: Stability in mouse microsomes assessed as half life. Format: ADME, Microsome.
Data set [19] concerns B16. In words: Antitumor activity against mouse B16 cells assessed as decrease in intracellular NAD level at 20 nM measured after 12 to 24 hrs in presence of olaparib by absorbance based assay. Format: functional, cell-based. The following applies: time 12-24 hrs.
The next data set has as its system A549. In words: Antitumor activity against human A549 cells assessed as inhibition of cell viability at 20 to 80 uM incubated for 48 hrs by CCK8 assay. Conditions: dose 20-80 µM. Format: functional, cell-based.
Data set [20] relates to B16. As to the kind of experiment: Antitumor activity against mouse B16 cells assessed as decrease in intracellular NAD level at 20 to 100 nM measured after 12 to 24 hrs by absorbance based assay. Format: functional, cell-based. The following applies: dose 20-100 nM, time 12-24 hrs.
Data set [21] deals with HepG2. As to the kind of experiment: Antitumor activity against human HepG2 cells assessed as inhibition of cell viability at 20 to 80 uM incubated for 48 hrs by CCK8 assay. Format: functional, cell-based. The following applies: dose 20-80 µM.
The subject of data set [22] is B16. As to the kind of experiment: Induction of DNA damage in mouse B16 cells assessed as increase in gammaH2AX level at 0.1 uM incubated for 24 hrs by immunofluorescence staining based analysis. Format: functional, cell-based.
Data set [23] has as its system LN-18. In words: Antitumor activity against human LN-18 cells assessed as inhibition of cell viability at 6 nM incubated for 72 hrs in presence of sirtuins inhibitor by crystal violet staining based analysis. The format is functional.
In data set [24] the test system is B16. As to the kind of experiment: Induction of DNA damage in mouse B16 cells assessed as increase in gammaH2AX level upto 100 nM incubated for 24 hrs in presence of NMN by immunofluorescence staining based analysis. The format is functional, cell-based.
Data set [25] deals with LN-18. As to the kind of experiment: Antitumor activity against human LN-18 cells assessed as inhibition of cell viability at 6 nM incubated for 72 hrs in presence of NNMT inhibitor by crystal violet staining based analysis. The format is functional.
Data set [26] has as its system B16. As to the kind of experiment: Induction of DNA damage in mouse B16 cells assessed as increase in gammaH2AX level at 100 nM incubated for 24 hrs by immunofluorescence staining based analysis. The format is functional, cell-based.
A further data set has as its system HCT-116. As to the kind of experiment: Antitumor activity against human HCT-116 cells assessed as inhibition of cell viability at 20 to 80 uM incubated for 48 hrs by CCK8 assay. Format: functional, cell-based. Conditions: dose 20-80 µM.
The nature of data set [27]: Antitumor activity against […] Hepa1-6 cells assessed as inhibition of cell viability incubated for 72 hrs by SRB assay. The following applies: Mus musculus, Hepa1-6, 72 h. Format: functional, cell-based.

Active and inactive are the calls of the source. The rule behind the calls is not given here.

Chain of Nicotinamide phosphoribosyltransferase (P43490 whole entry): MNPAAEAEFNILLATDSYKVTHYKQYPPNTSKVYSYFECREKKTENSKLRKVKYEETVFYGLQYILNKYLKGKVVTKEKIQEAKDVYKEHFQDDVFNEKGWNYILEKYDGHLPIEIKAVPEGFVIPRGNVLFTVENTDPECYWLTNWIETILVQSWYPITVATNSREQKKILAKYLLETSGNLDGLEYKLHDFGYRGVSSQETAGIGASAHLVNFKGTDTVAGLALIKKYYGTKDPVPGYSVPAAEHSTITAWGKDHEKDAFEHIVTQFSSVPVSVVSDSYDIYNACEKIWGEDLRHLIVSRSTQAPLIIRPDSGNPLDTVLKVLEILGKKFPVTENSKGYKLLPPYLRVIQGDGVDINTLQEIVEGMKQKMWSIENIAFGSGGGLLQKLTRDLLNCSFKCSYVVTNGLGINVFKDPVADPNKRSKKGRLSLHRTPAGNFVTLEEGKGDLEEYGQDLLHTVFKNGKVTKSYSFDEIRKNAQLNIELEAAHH
Chain of Nicotinamide phosphoribosyltransferase (Mus musculus) (Q99KQ4 whole entry, looked up): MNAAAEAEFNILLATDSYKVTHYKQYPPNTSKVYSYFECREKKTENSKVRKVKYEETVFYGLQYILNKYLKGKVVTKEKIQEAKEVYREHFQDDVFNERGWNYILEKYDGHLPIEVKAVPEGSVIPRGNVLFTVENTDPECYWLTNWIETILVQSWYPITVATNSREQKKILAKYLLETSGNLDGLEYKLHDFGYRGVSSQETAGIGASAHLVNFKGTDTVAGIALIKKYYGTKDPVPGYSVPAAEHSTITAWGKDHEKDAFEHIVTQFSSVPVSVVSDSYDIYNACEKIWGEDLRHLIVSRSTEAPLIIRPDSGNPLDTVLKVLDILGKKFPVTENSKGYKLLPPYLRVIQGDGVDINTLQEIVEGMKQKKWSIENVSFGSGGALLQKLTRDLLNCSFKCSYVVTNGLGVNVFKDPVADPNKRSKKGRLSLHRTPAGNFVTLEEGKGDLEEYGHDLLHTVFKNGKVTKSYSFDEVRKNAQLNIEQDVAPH

Take `O=C(/C=C/c1cccnc1)NCCCCC1CCN(C(=O)c2ccc(N(CCCl)CCCl)cc2)CC1`: the IC50 in data set [1] was 1.1 nM.
For `O=C(/C=C/c1cccnc1)NCCCCC1CCN(C(=O)c2cccc(N(CCCl)CCCl)c2)CC1`, the Activity result was “Dose-Dependent Effect” with CT26 [2]; “Dose-Dependent Effect” in the data set with HepG2 [11]; “Dose-Dependent Effect” with B16 [13]; “Non-Toxic” in [15]; “Non-Toxic” in [17]. Further, the IC50 was 0.7 nM in the data set on LN-18 [3]; 0.15 nM in data set [1]; 21.8 nM with CT26 [7]; 52.4 nM in the data set on B16 [12]; 5.1 nM in data set [27]. The inhibition result in the data set on PANC-1, with NCI-H1299, in the data set with MDA-MB-231, with A549, with HepG2 [21] and with HCT-116 was “Active” throughout. Also, the outcome (in the data set with CT26 [4]; in the data set on CT26 [5]; in the data set on B16 [6]; with B16 [8]; with CT26 [9]; in data set [10]) was Active. Besides, the outcome with Calf thymus DNA, with B16 [14], in the data set on CT26 [16], in the data set on B16 [20], in the data set with B16 [22] and in the data set with LN-18 [23] was Active. In addition, the outcome in the data set on LN-18 [25] and with B16 [26] was Active. In data set [18], the half-life stood at 56.1 s. Besides, the outcome in the data set on B16 [19] and in the data set on B16 [24] was inactive.
`O=C(/C=C/c1cccnc1)OCCCCC1CCN(C(=O)c2ccc(N(CCCl)CCCl)cc2)CC1`: the IC50 in data set [1] is 37.5 nM.
On to `O=C(/C=C/c1cccnc1)OCCCCC1CCN(C(=O)c2ccccc2N(CCCl)CCCl)CC1`, for which the IC50 in data set [1] was 1.3 nM.
`O=C(/C=C/c1cccnc1)NCCCCC1CCN(C(=O)c2ccccc2N(CCCl)CCCl)CC1`: the IC50 with LN-18 [3] amounted to 31.3 nM; in [1] it was 0.16 nM; in the data set with CT26 [7], 53.8 nM; in the data set with B16 [12] it was 72.5 nM; in [27], 51.6 nM. Moreover, in the data set on CT26 [5], the result was Active.
For the molecule `O=C(/C=C/c1cccnc1)NCCCCC1CCN(C(=O)c2ccccc2)CC1` [DAPORINAD], the IC50 in the data set on LN-18 [3] stood at 33.6 nM; with CT26 [7] it was 34.9 nM; with B16 [12] it was 219 nM; in data set [27], 33.6 nM. The result in the data set on CT26 [9] and with CT26 [16] was Active.
In the case of `O=C(/C=C/c1cccnc1)OCCCCC1CCN(C(=O)c2cccc(N(CCCl)CCCl)c2)CC1`, the IC50 in data set [1] was determined as 3.9 nM.
With `O=C(O)CCCc1ccc(N(CCCl)CCCl)cc1` [CHLORAMBUCIL], the IC50 (with LN-18 [3]; in the data set with CT26 [7]; with B16 [12]; in [27]) was over 1000 nM each time.

One may read the IC50 as the point on the concentration scale where inhibition reaches its midpoint. The term half-life denotes the time in which the quantity being followed falls by half.
